One assay concerns A549. Briefly: Cytotoxicity against human A549 cells after 48 hrs by SRB assay. The conditions noted are these: A549, 48 h. Background: In SRB staining, fixed cells bind dye roughly in proportion to their protein.
Assay [1] is described as follows: Cytotoxicity against human vincristine resistant KBVIN cells after 48 hrs by SRB assay.
In another assay the test system is KB. Description: Cytotoxicity against human KB cells after 48 hrs by SRB assay.
The next assay relates to MCF7. Briefly: Cytotoxicity against human MCF7 cells after 48 hrs by SRB assay. To be noted: MCF7, 48 h.

Molecules are shown by their SMILES. Converted amounts (≈) assume the structure as drawn.

For `C=C(C(CC(O)C(C)(C)O)OC(=O)/C(C)=C\C)[C@H]1C[C@H]2O[C@@]2(C)C(OC(=O)/C(C)=C\C)[C@H]1OC(C)=O` (stereo partly drawn), the 50% effective concentration (EC50) (with A549; in assay [1]; in the assay with KB; with MCF7) was more than 20 µg/mL in each case.

On to `C=C(C(CC1OC1(C)C)OC(=O)/C(C)=C\C)[C@H]1C[C@H]2O[C@@]2(C)C[C@H]1OC(=O)/C(C)=C\C` (stereo partly drawn), for which the half-maximal effective concentration (EC50) was more than 20 µg/mL with A549, 11.4 µg/mL (≈ 26.4 µM) in assay [1], more than 20 µg/mL in the assay on KB and more than 20 µg/mL in the assay on MCF7.

As to `C=C(c1cc(O)c(C)c(O)c1OC(C)=O)C(CC=C(C)C)OC(=O)/C(C)=C\C` (stereo not drawn) [ALTAICALARIN A], the concentration giving a half-maximal response (EC50) came out at 3.4 µg/mL (≈ 8.75 µM) with A549, 0.9 µg/mL (≈ 2.32 µM) in assay [1], 1 µg/mL (≈ 2.57 µM) in the assay on KB and 0.8 µg/mL (≈ 2.06 µM) in the assay on MCF7.

`C=C(c1ccc(C)c(O)c1O)C(CC=C(C)C)OC(=O)/C(C)=C\C` (stereo not drawn) [ALTAICALARIN B]: the half-maximal effective concentration (EC50) with A549 is more than 20 µg/mL; in assay [1], 15.9 µg/mL (≈ 48.1 µM); with KB, 11.8 µg/mL (≈ 35.7 µM); in the assay with MCF7, 10.8 µg/mL (≈ 32.7 µM).

On to `C=C(C(CC=C(C)C)OC(=O)/C(C)=C\C)[C@@H]1C[C@@H]2O[C@]2(C)C(=O)[C@H]1OC(C)=O` (stereo partly drawn) [ALTAICALARIN C], for which the EC50 worked out at 11.4 µg/mL (≈ 29.2 µM) in the assay with A549, 7.6 µg/mL (≈ 19.5 µM) in assay [1], 10.4 µg/mL (≈ 26.6 µM) in the assay on KB and 7.7 µg/mL (≈ 19.7 µM) in the assay with MCF7.

As for `C=C(C(CC1OC1(C)C)OC(=O)/C(C)=C\C)[C@@H]1[C@H](OC(=O)/C(C)=C\C)[C@@H]2O[C@]2(C)C(=O)[C@H]1OC(C)=O` (stereo partly drawn) [ALTAICALARIN D], the EC50 in the assay with A549 was more than 20 µg/mL; in assay [1], 18.9 µg/mL (≈ 37.5 µM); with KB it was more than 20 µg/mL; with MCF7 it was more than 20 µg/mL.

As to `COc1cc([C@@H]2c3cc4c(cc3[C@@H](O[C@@H]3O[C@@H]5CO[C@@H](C)O[C@H]5[C@H](O)[C@H]3O)[C@H]3COC(=O)[C@H]23)OCO4)cc(OC)c1O` [ETOPOSIDE], the EC50 with A549 worked out at 0.4 µg/mL (≈ 0.68 µM); in assay [1], 8.8 µg/mL (≈ 15 µM); with KB, 3.9 µg/mL (≈ 6.63 µM); with MCF7, 16.4 µg/mL (≈ 27.9 µM).

As usually defined, the EC50 is the concentration at which the effect is half-maximal. Low values mean an effect from little substance, high ones a need for much substance.

The values above are taken from ChEMBL document CHEMBL1154893, “Altaicalarins A-D, cytotoxic bisabolane sesquiterpenes from Ligularia altaica” (J Nat Prod, 2010).
